Reference: patent EP4516309A1, “CRHR1 AGONISTS FOR USE IN THE TREATMENT OF SOCIAL ANXIETY DISORDERS” (Consejo Superior de Investigaciones Cientificas, priority 2023, dated 2025)

Target: T1, inhibitory DREADD (Homo sapiens, UniProt P08173, A203G/Y113C)
T1 construct: host or cells: ILA CRH+ neurons of CRH-Cre mice, Cre-dependent AAV2/8 transduction in vivo
T1 sequence (P08173 1-479 Y113C/A203G): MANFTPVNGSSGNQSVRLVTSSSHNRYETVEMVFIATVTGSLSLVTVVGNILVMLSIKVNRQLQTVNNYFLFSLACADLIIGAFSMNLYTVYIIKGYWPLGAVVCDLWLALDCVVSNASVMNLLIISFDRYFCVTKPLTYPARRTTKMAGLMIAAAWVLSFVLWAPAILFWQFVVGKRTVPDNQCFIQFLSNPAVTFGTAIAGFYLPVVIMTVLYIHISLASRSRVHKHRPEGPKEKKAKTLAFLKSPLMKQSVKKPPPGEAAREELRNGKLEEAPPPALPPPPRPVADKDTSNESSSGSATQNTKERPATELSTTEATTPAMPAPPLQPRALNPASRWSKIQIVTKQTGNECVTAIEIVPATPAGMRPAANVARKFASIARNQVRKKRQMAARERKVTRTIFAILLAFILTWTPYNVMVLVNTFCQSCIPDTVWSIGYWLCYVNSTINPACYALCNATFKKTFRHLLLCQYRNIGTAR
Assay: c-fos / mCherry overlap in ILA after familiar animal presentation, inhibitory DREADD
Type: in vivo, CRH-Cre mice
Settings: CNO i.p. 30 min before familiar animal presentation; vs. saline
Protocol: Mice were anesthetized using isoflurane then perfused in the heart with 10 mL saline and their brains were quickly extracted and incubated in 4% PFA overnight. After 1 h washing in PBS, 60 µm slices were prepared using a Leica VT1000S vibratome (Leica Biosystems). Unless indicated otherwise, slices were permeabilized for 2h in PBS with 0.5% Triton-X100 (T9284, Sigma-Aldrich) in PBS before being incubated overnight at 4°C with primary antibodies diluted in PBS with 0.5% Triton-X in PBS. The slices were washed in PBS for 1 h then incubated overnight at 4°C with secondary antibodies from Thermo-Fisher Scientific at a concentration of 1:500 diluted in PBS with 0.1% Triton-X. Hoechst counterstain was applied (Hoechst 33342 at 1:1000 for 30 min in PBS at RT) prior to mounting the slice using fluoromount (Sigma-Aldrich). Images were acquired using inverted confocal microscopes (Ism 900, Zeiss and SPII, Leica) or an epifluorescent microscope (Thunder, Leica). For post-hoc immunocytochemistry after patch-clamp recordings, slices were fixed for 1 h in PBS with 4% PFA and streptavidin was applied during secondary incubation. • For mRuby and GFP labelling, primary incubation was performed overnight at 4°C with rabbit anti-RFP (1:500, Rockland Antibody, #600-401-379) and chicken anti-GFP (1:1000, Aves, #GFP-1020) antibodies. […]

In the case of `C[N+]1([O-])CCN(C2=Nc3cc(Cl)ccc3Nc3ccccc32)CC1` [CNO, clozapine N-oxide], the “c-fos/mCherry+ cells in ILA” value is reported as “less c-fos/mCherry+ cells compared to the saline control”.
